# In ChEMBL document CHEMBL1129734, “Synthesis and structure-activity relationships of a new model of arylpiperazines. 1. 2-[[4-(o-methoxyphenyl)piperazin-1-yl]methyl]-1, 3-dioxoperhydroimidazo[1,5-alpha]pyridine: a selective 5-HT1A receptor agonist” (J Med Chem, 1996):
# Tests used:
# [1] = target: T1, 5-hydroxytryptamine receptor 1A (Rattus norvegicus, UniProt P19327); assay: Binding affinity towards rat 5-hydroxytryptamine 1A receptor using [3H]8-OH-DPAT radioligand.
# T1 sequence (P19327 whole entry): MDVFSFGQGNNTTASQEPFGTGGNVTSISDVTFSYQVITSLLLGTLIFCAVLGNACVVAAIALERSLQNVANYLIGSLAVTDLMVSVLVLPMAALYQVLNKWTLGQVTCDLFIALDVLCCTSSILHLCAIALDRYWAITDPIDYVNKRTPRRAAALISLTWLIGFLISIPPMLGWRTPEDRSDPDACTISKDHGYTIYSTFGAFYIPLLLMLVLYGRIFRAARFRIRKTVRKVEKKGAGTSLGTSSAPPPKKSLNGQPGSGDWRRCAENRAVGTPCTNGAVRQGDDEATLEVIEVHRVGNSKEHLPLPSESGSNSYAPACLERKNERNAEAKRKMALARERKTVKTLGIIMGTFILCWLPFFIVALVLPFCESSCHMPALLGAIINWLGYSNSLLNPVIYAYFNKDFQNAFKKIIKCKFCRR
# [2] = target: T2, Adrenergic receptor alpha-1 (Rattus norvegicus, UniProt P15823+P23944+P43140); assay: Binding affinity towards alpha-1 adrenergic receptor using [3H]prazosin radioligand.; assay type: protein assay
# T2 sequence (P15823 whole entry): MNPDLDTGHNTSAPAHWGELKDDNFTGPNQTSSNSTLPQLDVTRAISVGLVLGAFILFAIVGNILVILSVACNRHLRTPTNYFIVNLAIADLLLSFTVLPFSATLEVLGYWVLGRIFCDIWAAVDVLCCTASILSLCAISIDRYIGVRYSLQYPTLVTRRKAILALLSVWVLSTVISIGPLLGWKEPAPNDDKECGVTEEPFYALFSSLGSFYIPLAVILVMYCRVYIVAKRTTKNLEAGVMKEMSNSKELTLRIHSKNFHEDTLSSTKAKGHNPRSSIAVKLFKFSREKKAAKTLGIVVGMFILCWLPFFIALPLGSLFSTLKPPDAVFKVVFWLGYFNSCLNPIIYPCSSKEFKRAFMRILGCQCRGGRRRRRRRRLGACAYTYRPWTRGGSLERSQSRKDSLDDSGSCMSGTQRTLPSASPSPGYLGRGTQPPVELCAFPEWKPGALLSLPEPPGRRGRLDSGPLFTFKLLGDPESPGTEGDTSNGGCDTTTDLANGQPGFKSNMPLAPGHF
# T2 sequence (P23944 whole entry): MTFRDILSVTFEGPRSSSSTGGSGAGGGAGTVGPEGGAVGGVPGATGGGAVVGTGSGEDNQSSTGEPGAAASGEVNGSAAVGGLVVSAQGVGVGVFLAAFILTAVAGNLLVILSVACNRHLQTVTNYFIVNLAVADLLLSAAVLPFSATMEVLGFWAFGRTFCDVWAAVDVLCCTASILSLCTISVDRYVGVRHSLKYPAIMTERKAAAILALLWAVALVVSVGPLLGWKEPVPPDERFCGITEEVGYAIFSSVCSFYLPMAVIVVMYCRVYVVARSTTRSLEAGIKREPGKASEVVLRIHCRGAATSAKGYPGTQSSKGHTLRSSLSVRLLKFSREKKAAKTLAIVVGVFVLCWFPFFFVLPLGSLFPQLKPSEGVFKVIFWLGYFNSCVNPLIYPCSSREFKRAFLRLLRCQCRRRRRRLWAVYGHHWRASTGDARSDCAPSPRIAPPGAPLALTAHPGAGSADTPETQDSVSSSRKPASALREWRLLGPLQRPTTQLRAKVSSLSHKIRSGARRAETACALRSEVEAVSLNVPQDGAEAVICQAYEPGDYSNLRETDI
# T2 sequence (P43140 whole entry): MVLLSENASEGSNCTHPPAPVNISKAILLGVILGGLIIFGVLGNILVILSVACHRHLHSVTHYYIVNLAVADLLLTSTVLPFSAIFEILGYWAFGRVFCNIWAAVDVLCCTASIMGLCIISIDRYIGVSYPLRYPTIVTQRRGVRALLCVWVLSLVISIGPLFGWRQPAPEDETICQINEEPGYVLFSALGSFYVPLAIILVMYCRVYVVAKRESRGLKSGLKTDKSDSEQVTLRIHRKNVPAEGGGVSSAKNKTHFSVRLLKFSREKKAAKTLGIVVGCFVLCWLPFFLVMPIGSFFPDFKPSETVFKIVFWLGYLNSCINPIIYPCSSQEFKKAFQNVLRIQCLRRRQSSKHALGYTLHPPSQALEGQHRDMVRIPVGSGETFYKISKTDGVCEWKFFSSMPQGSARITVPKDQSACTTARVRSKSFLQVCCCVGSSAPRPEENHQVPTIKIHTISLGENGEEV
# D(2) dopamine receptor = D(2) dopamine receptor (Rattus norvegicus, UniProt P61169); assay: Binding affinity towards dopamine receptor D2 using [3H]-raclopride radioligand.
# D(2) dopamine receptor, sequence (P61169 whole entry): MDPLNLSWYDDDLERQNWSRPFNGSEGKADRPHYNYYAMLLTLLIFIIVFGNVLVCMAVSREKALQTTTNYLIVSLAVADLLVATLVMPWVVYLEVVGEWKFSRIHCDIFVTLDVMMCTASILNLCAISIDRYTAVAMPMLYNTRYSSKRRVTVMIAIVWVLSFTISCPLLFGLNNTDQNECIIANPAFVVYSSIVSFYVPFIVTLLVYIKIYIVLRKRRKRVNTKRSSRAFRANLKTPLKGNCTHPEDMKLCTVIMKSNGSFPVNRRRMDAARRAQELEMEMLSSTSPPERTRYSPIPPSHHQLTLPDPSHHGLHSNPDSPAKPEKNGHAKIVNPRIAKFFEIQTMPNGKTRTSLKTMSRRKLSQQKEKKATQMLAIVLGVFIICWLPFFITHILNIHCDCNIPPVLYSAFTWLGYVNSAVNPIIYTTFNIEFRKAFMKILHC
Ki [1] [nM],Ki [2] [nM],Ki (D(2) dopamine receptor) [nM],SMILES
11.3,9.6,151,O=C1C2CCCN2C(=O)N1CCCCN1CCN(c2cccc(Cl)c2)CC1 (stereo not drawn)
19.2,15.4,> 1000,O=C1C2CCCN2C(=O)N1CCCN1CCN(c2ccccc2)CC1 (stereo not drawn)
> 1000,> 1000,> 1000,O=C1C2CCCCN2C(=O)N1CCN1CCN(c2ccccc2)CC1 (stereo not drawn)
> 1000,> 10000,> 10000,O=C1C2CCCN2C(=O)N1CN1CCN(c2ccc([N+](=O)[O-])cc2)CC1 (stereo not drawn)
57.9,10.4,615,O=C1C2CCCCN2C(=O)N1CCCCN1CCN(c2ccc(F)cc2)CC1 (stereo not drawn)
> 1000,> 1000,> 1000,O=C1C2CCCN2C(=O)N1CCN1CCN(c2ccccc2)CC1 (stereo not drawn)
57.7,135,> 10000,O=C1C2CCCCN2C(=O)N1CN1CCN(c2cccc(Cl)c2)CC1 (stereo not drawn)
55.9,21.6,> 1000,O=C1C2CCCN2C(=O)N1CCCN1CCN(c2cccc(Cl)c2)CC1 (stereo not drawn)
154,11.4,> 1000,O=C1C2CCCCN2C(=O)N1CCCN1CCN(c2ccccc2)CC1 (stereo not drawn)
–,18.6,> 1000,O=C1C2CCCCN2C(=O)N1CCCCN1CCN(c2ccccc2)CC1 (stereo not drawn)
7.2,12.1,129,O=C1C2CCCCN2C(=O)N1CCCCN1CCN(c2cccc(Cl)c2)CC1 (stereo not drawn)
3.8,109,> 1000,O=C1C2CCCN2C(=O)N1CCCN1CCN(c2cccc(C(F)(F)F)c2)CC1 (stereo not drawn)
120,> 1000,> 1000,O=C1C2CCCN2C(=O)N1CN1CCN(c2cccc(C(F)(F)F)c2)CC1 (stereo not drawn)
24.8,26.4,416,O=C1C2CCCN2C(=O)N1CCCCN1CCN(c2ccccc2)CC1 (stereo not drawn)
4.1,9.9,> 1000,COc1ccccc1N1CCN(CCCN2C(=O)C3CCCCN3C2=O)CC1 (stereo not drawn)
> 1000,> 1000,> 1000,O=C1C2CCCCN2C(=O)N1CCCCN1CCN(c2ccc([N+](=O)[O-])cc2)CC1 (stereo not drawn)
85.3,1000,> 10000,O=C1C2CCCN2C(=O)N1CN1CCN(c2ccccc2)CC1 (stereo not drawn)
34.9,500,> 1000,COc1ccccc1N1CCN(CN2C(=O)C3CCCN3C2=O)CC1 (stereo not drawn)
234,190,361,COc1ccccc1N1CCN(CCN2C(=O)C3CCCN3C2=O)CC1 (stereo not drawn)
> 10000,> 10000,> 10000,O=C1C2CCCN2C(=O)N1CCN1CCN(c2ccc([N+](=O)[O-])cc2)CC1 (stereo not drawn)
> 1000,25.2,> 1000,O=C1C2CCCN2C(=O)N1CCCN1CCN(c2ccc(F)cc2)CC1 (stereo not drawn)
> 1000,> 10000,> 10000,O=C1C2CCCCN2C(=O)N1CN1CCN(c2ccc([N+](=O)[O-])cc2)CC1 (stereo not drawn)
2.4,64.9,> 1000,O=C1C2CCCN2C(=O)N1CCCCN1CCN(c2cccc(C(F)(F)F)c2)CC1 (stereo not drawn)
–,–,64,COc1ccccc1N1CCN(CCCCN2C(=O)c3ccccc3C2=O)CC1 [NAN-190]

# The next lines start with the compound.
SMILES,Ki [1] [nM],Ki [2] [nM],Ki (D(2) dopamine receptor) [nM]
O=C1C2CCCCN2C(=O)N1CCN1CCN(c2ccc(F)cc2)CC1 (stereo not drawn),> 10000,> 1000,> 10000
COc1ccccc1N1CCN(CCCN2C(=O)C3CCCN3C2=O)CC1 (stereo not drawn),4.4,3.1,> 1000
O=C1C2CCCCN2C(=O)N1CN1CCN(c2cccc(C(F)(F)F)c2)CC1 (stereo not drawn),78.6,> 1000,> 1000
COc1ccccc1N1CCN(CCN2C(=O)C3CCCCN3C2=O)CC1 (stereo not drawn),45.5,131,246
O=C1C2CCCN2C(=O)N1CN1CCN(c2cccc(Cl)c2)CC1 (stereo not drawn),58.4,292,> 10000
O=C1C2CCCCN2C(=O)N1CCCN1CCN(c2ccc([N+](=O)[O-])cc2)CC1 (stereo not drawn),> 10000,> 1000,> 10000
O=C1C2CCCCN2C(=O)N1CCN1CCN(c2ccc([N+](=O)[O-])cc2)CC1 (stereo not drawn),> 10000,> 10000,> 10000
O=C1C2CCCCN2C(=O)N1CCN1CCN(c2cccc(C(F)(F)F)c2)CC1 (stereo not drawn),65.8,> 1000,> 1000
O=C1C2CCCCN2C(=O)N1CN1CCN(c2ccccc2)CC1 (stereo not drawn),101,> 1000,> 10000
COc1ccccc1N1CCN(CCCCN2C(=O)C3CCCN3C2=O)CC1 (stereo not drawn),5.5,8.3,107
O=C1C2CCCN2C(=O)N1CN1CCN(c2ccc(F)cc2)CC1 (stereo not drawn),500,> 1000,> 10000
O=C1C2CCCN2C(=O)N1CCN1CCN(c2ccc(F)cc2)CC1 (stereo not drawn),> 10000,> 1000,> 10000
O=C1C2CCCCN2C(=O)N1CCCN1CCN(c2cccc(Cl)c2)CC1 (stereo not drawn),53.6,17.9,> 1000
O=C1C2CCCCN2C(=O)N1CCCN1CCN(c2ccc(F)cc2)CC1 (stereo not drawn),598,25.8,> 1000
O=C1C2CCCCN2C(=O)N1CCCN1CCN(c2cccc(C(F)(F)F)c2)CC1 (stereo not drawn),5.7,90.4,> 1000
O=C1C2CCCN2C(=O)N1CCCN1CCN(c2ccc([N+](=O)[O-])cc2)CC1 (stereo not drawn),> 10000,> 1000,> 10000
O=C1C2CCCCN2C(=O)N1CCN1CCN(c2cccc(Cl)c2)CC1 (stereo not drawn),128,375,> 1000
O=C1C2CCCCN2C(=O)N1CN1CCN(c2ccc(F)cc2)CC1 (stereo not drawn),444,869,> 10000
O=C1C2CCCN2C(=O)N1CCN1CCN(c2cccc(Cl)c2)CC1 (stereo not drawn),418,500,> 1000
COc1ccccc1N1CCN(CCCCN2C(=O)C3CCCCN3C2=O)CC1 (stereo not drawn),8.8,8.6,> 1000
O=C1C2CCCN2C(=O)N1CCCCN1CCN(c2ccc(F)cc2)CC1 (stereo not drawn),89.9,47.2,> 1000
O=C1C2CCCN2C(=O)N1CCCCN1CCN(c2ccc([N+](=O)[O-])cc2)CC1 (stereo not drawn),> 1000,247,> 1000
O=C1C2CCCN2C(=O)N1CCN1CCN(c2cccc(C(F)(F)F)c2)CC1 (stereo not drawn),123,> 1000,> 1000
